Reference: patent US20230365592A1 (Agios Pharmaceuticals, Inc., priority 2022, published 2023)

The compounds below were run against T1, human PAH with the R408W mutation (Homo sapiens, UniProt P00439, R408W) (assay: Cell Based Phenylalanine Flux Assay). Conditions: A375 cells expressing human PAH R408W; 24 hrs compound incubation; 13C-Tyrosine by LC-MS; average where tested multiple times; read-out: AC50.
T1 construct: expressed in transfected cells
T1 sequence (P00439 1-452 R408W): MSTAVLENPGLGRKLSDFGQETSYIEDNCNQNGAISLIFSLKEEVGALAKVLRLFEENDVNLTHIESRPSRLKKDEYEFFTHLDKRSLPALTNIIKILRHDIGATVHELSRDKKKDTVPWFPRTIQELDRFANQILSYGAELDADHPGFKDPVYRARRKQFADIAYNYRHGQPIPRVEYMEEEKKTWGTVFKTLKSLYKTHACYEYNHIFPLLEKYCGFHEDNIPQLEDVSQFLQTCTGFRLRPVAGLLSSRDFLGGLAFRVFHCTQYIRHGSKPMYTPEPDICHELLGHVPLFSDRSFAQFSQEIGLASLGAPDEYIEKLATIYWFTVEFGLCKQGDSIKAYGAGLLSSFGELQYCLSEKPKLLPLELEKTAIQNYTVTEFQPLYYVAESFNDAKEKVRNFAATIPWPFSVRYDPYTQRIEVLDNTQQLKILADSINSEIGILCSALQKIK
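Note: after compound treatment, cells received sepiapterin plus isotope-labelled Phenylalanine for 4 hours, then labelled Tyrosine in the medium was quantified, 10-point 2-fold dilution series run in duplicate.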

Structure (SMILES)	AC50 [nM]
Cc1cccc2cc([C@@H]3c4nc[nH]c4CCN3c3nnc(C(C)(F)F)o3)nn12 [Example 2329, (S)-2-(1,1-difluoroethyl)-5-(4-(7-methylpyrazolo[1,5-a]pyridin-2-yl)-1,4,6,7-tetrahydro-5H-imidazo[4,5-c]pyridin-5-yl)-1,3,4-oxadiazole]	1000 to 5000
Cc1ncccc1-c1nnc(N2CCc3[nH]cnc3[C@@H]2c2cc3cccc(Cl)n3n2)o1 [Example 2331, (R)-2-(4-(7-chloropyrazolo[1,5-a]pyridin-2-yl)-1,4,6,7-tetrahydro-5H-imidazo[4,5-c]pyridin-5-yl)-5-(2-methylpyridin-3-yl)-1,3,4-oxadiazole]	> 5000
Cc1ncccc1-c1nnc(N2CCc3[nH]cnc3[C@H]2c2cc3cccc(C)n3n2)o1 [Example 2332, (S)-2-(4-(7-methylpyrazolo[1,5-a]pyridin-2-yl)-1,4,6,7-tetrahydro-5H-imidazo[4,5-c]pyridin-5-yl)-5-(2-methylpyridin-3-yl)-1,3,4-oxadiazole]	500 to 1000
Cc1ncccc1-c1nnc(N2CCc3[nH]cnc3[C@@H]2c2cc3cccc(C)n3n2)o1 [Example 2333, (R)-2-(4-(7-methylpyrazolo[1,5-a]pyridin-2-yl)-1,4,6,7-tetrahydro-5H-imidazo[4,5-c]pyridin-5-yl)-5-(2-methylpyridin-3-yl)-1,3,4-oxadiazole]	> 5000
Cc1cccnc1-c1nnc(N2CCc3[nH]cnc3[C@H]2c2cc3cccc(C(F)(F)F)n3n2)o1 [Example 2336, (S)-2-(3-methylpyridin-2-yl)-5-(4-(7-(trifluoromethyl)pyrazolo[1,5-a]pyridin-2-yl)-1,4,6,7-tetrahydro-5H-imidazo[4,5-c]pyridin-5-yl)-1,3,4-oxadiazole]	500 to 1000
FC(F)(F)Oc1cccn2nc([C@@H]3c4nc[nH]c4CCN3c3ccc(C(F)(F)F)cn3)cc12 [Example 2348, (S)-4-(4-(trifluoromethoxy)pyrazolo[1,5-a]pyridin-2-yl)-5-(5-(trifluoromethyl)pyridin-2-yl)-4,5,6,7-tetrahydro-1H-imidazo[4,5-c]pyridine]	500 to 1000
Cc1cccc(-c2nnc(N3CCc4[nH]cnc4[C@H]3c3cc4c(C(F)(F)F)cccn4n3)o2)n1 [Example 2357, (S)-2-(6-methylpyridin-2-yl)-5-(4-(4-(trifluoromethyl)pyrazolo[1,5-a]pyridin-2-yl)-1,4,6,7-tetrahydro-5H-imidazo[4,5-c]pyridin-5-yl)-1,3,4-oxadiazole]	500 to 1000
Cc1cccc(-c2nnc(N3CCc4[nH]cnc4[C@@H]3c3cc4c(C5CC5)cccn4n3)o2)n1 [Example 2358, (R)-2-(4-(4-cyclopropylpyrazolo[1,5-a]pyridin-2-yl)-1,4,6,7-tetrahydro-5H-imidazo[4,5-c]pyridin-5-yl)-5-(6-methylpyridin-2-yl)-1,3,4-oxadiazole]	> 5000
Cc1cccc(-c2nnc(N3CCc4[nH]cnc4[C@H]3c3cc4c(C5CC5)cccn4n3)o2)n1 [Example 2359, (S)-2-(4-(4-cyclopropylpyrazolo[1,5-a]pyridin-2-yl)-1,4,6,7-tetrahydro-5H-imidazo[4,5-c]pyridin-5-yl)-5-(6-methylpyridin-2-yl)-1,3,4-oxadiazole]	500 to 1000
Fc1cccc(-c2nnc(N3CCc4[nH]cnc4[C@H]3c3cc4c(C(F)(F)F)cccn4n3)o2)n1 [Example 2363, (S)-2-(6-fluoropyridin-2-yl)-5-(4-(4-(trifluoromethyl)pyrazolo[1,5-a]pyridin-2-yl)-1,4,6,7-tetrahydro-5H-imidazo[4,5-c]pyridin-5-yl)-1,3,4-oxadiazole]	500 to 1000
O=C(c1nnc(-c2ccc(F)cn2)o1)N1CCc2[nH]cnc2[C@@H]1c1cc2ccccn2n1 [Example 2364, (R)-(5-(5-fluoropyridin-2-yl)-1,3,4-oxadiazol-2-yl)(4-(pyrazolo[1,5-a]pyridin-2-yl)-6,7-dihydro-1H-imidazo[4,5-c]pyridin-5(4H)-yl)methanone]	> 5000
O=C(c1cnn(CC(F)(F)F)c1C(F)F)N1CCc2[nH]cnc2[C@H]1c1cc2ccccn2n1 [Example 2368, (S)-(5-(difluoromethyl)-1-(2,2,2-trifluoroethyl)-1H-pyrazol-4-yl)(4-(pyrazolo[1,5-a]pyridin-2-yl)-6,7-dihydro-1H-imidazo[4,5-c]pyridin-5(4H)-yl)methanone]	1000 to 5000
O=C(c1cnn(CC(F)(F)F)c1C(F)F)N1CCc2[nH]cnc2[C@@H]1c1cc2ccccn2n1 [Example 2369, (R)-(5-(difluoromethyl)-1-(2,2,2-trifluoroethyl)-1H-pyrazol-4-yl)(4-(pyrazolo[1,5-a]pyridin-2-yl)-6,7-dihydro-1H-imidazo[4,5-c]pyridin-5(4H)-yl)methanone]	> 5000
Nc1cc(C(=O)N2CCc3[nH]cnc3[C@H]2c2cc3ccccn3n2)n(C(F)F)n1 [Example 2370, (S)-(3-amino-1-(difluoromethyl)-1H-pyrazol-5-yl)(4-(pyrazolo[1,5-a]pyridin-2-yl)-6,7-dihydro-1H-imidazo[4,5-c]pyridin-5(4H)-yl)methanone]	1000 to 5000
Cn1nc(C(F)(F)F)nc1C(=O)N1CCc2[nH]cnc2[C@H]1c1cc2ccccn2n1 [Example 2372, (S)-(1-methyl-3-(trifluoromethyl)-1H-1,2,4-triazol-5-yl)(4-(pyrazolo[1,5-a]pyridin-2-yl)-6,7-dihydro-1H-imidazo[4,5-c]pyridin-5(4H)-yl)methanone]	1000 to 5000
CC(C)(O)c1nnc(C(=O)N2CCc3[nH]cnc3[C@H]2c2cc3c(Cl)cccn3n2)o1 [Example 2378, (S)-(4-(4-chloropyrazolo[1,5-a]pyridin-2-yl)-6,7-dihydro-1H-imidazo[4,5-c]pyridin-5(4H)-yl)(5-(2-hydroxypropan-2-yl)-1,3,4-oxadiazol-2-yl)methanone]	1000 to 5000

More lines, now with the values ahead:

AC50 [nM]	Structure (SMILES)
500 to 1000	CC(C)c1cccn2nc([C@@H]3c4nc[nH]c4CCN3c3nnc(-c4cccnc4F)o3)cc12 [Example 2335, (S)-2-(2-fluoropyridin-3-yl)-5-(4-(4-isopropylpyrazolo[1,5-a]pyridin-2-yl)-1,4,6,7-tetrahydro-5H-imidazo[4,5-c]pyridin-5-yl)-1,3,4-oxadiazole]
500 to 1000	Fc1cccnc1-c1nnc(N2CCc3[nH]cnc3[C@H]2c2cc3ccccn3n2)o1 [Example 2338, (S)-2-(3-fluoropyridin-2-yl)-5-(4-(pyrazolo[1,5-a]pyridin-2-yl)-1,4,6,7-tetrahydro-5H-imidazo[4,5-c]pyridin-5-yl)-1,3,4-oxadiazole]
> 5000	Fc1cccnc1-c1nnc(N2CCc3[nH]cnc3[C@@H]2c2cc3ccccn3n2)o1 [Example 2339, (R)-2-(3-fluoropyridin-2-yl)-5-(4-(pyrazolo[1,5-a]pyridin-2-yl)-1,4,6,7-tetrahydro-5H-imidazo[4,5-c]pyridin-5-yl)-1,3,4-oxadiazole]
> 5000	Cc1cccn2nc([C@H]3c4nc[nH]c4CCN3c3nnc(-c4ncccc4F)o3)cc12 [Example 2340, (R)-2-(3-fluoropyridin-2-yl)-5-(4-(4-methylpyrazolo[1,5-a]pyridin-2-yl)-1,4,6,7-tetrahydro-5H-imidazo[4,5-c]pyridin-5-yl)-1,3,4-oxadiazole]
500 to 1000	Cc1cccn2nc([C@@H]3c4nc[nH]c4CCN3c3nnc(-c4ncccc4F)o3)cc12 [Example 2341, (S)-2-(3-fluoropyridin-2-yl)-5-(4-(4-methylpyrazolo[1,5-a]pyridin-2-yl)-1,4,6,7-tetrahydro-5H-imidazo[4,5-c]pyridin-5-yl)-1,3,4-oxadiazole]
500 to 1000	Cc1cccc(-c2nnc(N3CCc4[nH]cnc4[C@H]3c3cc4c(C)cccn4n3)o2)n1 [Example 2345, (S)-2-(4-(4-methylpyrazolo[1,5-a]pyridin-2-yl)-1,4,6,7-tetrahydro-5H-imidazo[4,5-c]pyridin-5-yl)-5-(6-methylpyridin-2-yl)-1,3,4-oxadiazole]
500 to 1000	Cc1cccc(-c2nnc(N3CCc4[nH]cnc4[C@H]3c3cc4c(C(F)F)cccn4n3)o2)n1 [Example 2347, (S)-2-(4-(4-(difluoromethyl)pyrazolo[1,5-a]pyridin-2-yl)-1,4,6,7-tetrahydro-5H-imidazo[4,5-c]pyridin-5-yl)-5-(6-methylpyridin-2-yl)-1,3,4-oxadiazole]
500 to 1000	Fc1ncccc1-c1nnc(N2CCc3[nH]cnc3[C@H]2c2cc3c(Cl)cccn3n2)o1 [Example 2350, (S)-2-(4-(4-chloropyrazolo[1,5-a]pyridin-2-yl)-1,4,6,7-tetrahydro-5H-imidazo[4,5-c]pyridin-5-yl)-5-(2-fluoropyridin-3-yl)-1,3,4-oxadiazole]
> 5000	CC(C)c1cccn2nc([C@H]3c4nc[nH]c4CCN3c3nnc(-c4ncccc4F)o3)cc12 [Example 2354, (R)-2-(3-fluoropyridin-2-yl)-5-(4-(4-isopropylpyrazolo[1,5-a]pyridin-2-yl)-1,4,6,7-tetrahydro-5H-imidazo[4,5-c]pyridin-5-yl)-1,3,4-oxadiazole]
500 to 1000	CC(C)c1cccn2nc([C@@H]3c4nc[nH]c4CCN3c3nnc(-c4ncccc4F)o3)cc12 [Example 2355, (S)-2-(3-fluoropyridin-2-yl)-5-(4-(4-isopropylpyrazolo[1,5-a]pyridin-2-yl)-1,4,6,7-tetrahydro-5H-imidazo[4,5-c]pyridin-5-yl)-1,3,4-oxadiazole]
> 5000	Cc1cccn2nc([C@H]3c4nc[nH]c4CCN3c3nnc(-c4cccc(F)n4)o3)cc12 [Example 2360, (R)-2-(6-fluoropyridin-2-yl)-5-(4-(4-methylpyrazolo[1,5-a]pyridin-2-yl)-1,4,6,7-tetrahydro-5H-imidazo[4,5-c]pyridin-5-yl)-1,3,4-oxadiazole]
